The values below come from publication PMC9457746, “Synthesis of Sulfonamides Incorporating Piperidinyl-Hydrazidoureido and Piperidinyl-Hydrazidothioureido Moieties and Their Carbonic Anhydrase I, II, IX and XII Inhibitory Activity” (Molecules, 2022).

One data set deals with hCA II (Homo sapiens, UniProt P00918). Description: stopped flow CO2 hydrase assay, hCA II inhibition.
The next data set concerns the target hCA IX (Homo sapiens, UniProt Q16790). Description: stopped flow CO2 hydrase assay, hCA IX inhibition.
The target in the next data set is hCA I (Homo sapiens, UniProt P00915). In words: stopped flow CO2 hydrase assay, hCA I inhibition.
For a further data set, the target named is hCA XII (Homo sapiens, UniProt O43570). Description: stopped flow CO2 hydrase assay, hCA XII inhibition.
hCA XII, sequence (O43570 25-354): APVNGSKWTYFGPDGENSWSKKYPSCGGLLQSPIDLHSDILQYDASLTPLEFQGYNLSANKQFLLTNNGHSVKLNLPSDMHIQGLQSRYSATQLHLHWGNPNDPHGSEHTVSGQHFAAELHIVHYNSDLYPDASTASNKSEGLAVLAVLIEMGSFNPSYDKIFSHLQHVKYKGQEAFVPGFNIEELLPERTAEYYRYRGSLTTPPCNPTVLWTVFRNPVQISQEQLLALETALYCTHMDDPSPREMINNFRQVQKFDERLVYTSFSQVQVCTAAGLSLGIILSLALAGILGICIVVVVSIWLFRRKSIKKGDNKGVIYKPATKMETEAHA

hCA I, sequence (P00915 whole entry): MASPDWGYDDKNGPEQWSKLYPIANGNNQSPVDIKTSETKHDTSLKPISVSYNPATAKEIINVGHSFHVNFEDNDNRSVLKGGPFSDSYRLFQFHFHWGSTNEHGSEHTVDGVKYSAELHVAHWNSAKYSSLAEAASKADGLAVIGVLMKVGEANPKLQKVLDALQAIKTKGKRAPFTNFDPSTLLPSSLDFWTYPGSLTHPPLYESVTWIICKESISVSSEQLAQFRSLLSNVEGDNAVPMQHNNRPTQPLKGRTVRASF
Method for hCA II: (§1) An Applied Photophysics stopped-flow instrument has been used for assaying the CA catalyzed CO2 hydration activity using the Khalifah procedure [23]. The used indicator was phenol red (0.2 mM), the absorbance maximum was of 557 nm, and the buffer was 20 mM Hepes (pH 7.5), whereas 20 mM Na2SO4 were employed for maintaining the ionic strength constant. […] Uncatalyzed rates were subtracted from the observed total rates. […] Inhibitor and enzyme solutions were preincubated together for 15 min, for assuring the formation of the E–I complex. The inhibition constants were obtained by non-linear least squares using the Cheng–Prusoff equation, as reported earlier [24, 25, 26] and represent the mean from at least three different determinations.
Method for hCA IX: as §1
Method for hCA XII: as §1

The term Ki denotes the equilibrium dissociation constant of an inhibitor or competing ligand from its target. A lower Ki goes with a stronger hold on the target. The melting point is the temperature, or range, at which the solid turns liquid. `NS(=O)(=O)c1ccc(C(=O)N2CCC(C(=O)NNC(=S)Nc3ccc([N+](=O)[O-])cc3)CC2)cc1` [Compound 6b, N-(4-Nitrophenyl)-2-(1-(4-sulfamoylbenzoyl)piperidine-4-carbonyl)hydrazinecarbothioamide] gave a melting point of 236 to 237 °C. This molecule also returned a Ki on hCA II of 60.4 nM. The molecule also came in with an inhibitory constant (Ki) at hCA IX of 13.6 nM. In addition, the “selectivity on hCA IX compared to hCA I” value at hCA IX (hCA IX versus hCA I) is recorded as “about 22 fold”. Also, at hCA IX (hCA IX versus hCA II), the “selectivity on hCA IX compared to hCA II” value is “about 4 fold”. Besides, the “selectivity on hCA IX compared to hCA XII” value on hCA IX (hCA IX versus hCA XII) is listed as around 3 fold. Moreover, the affinity on hCA I, expressed as Ki, was 298 nM. The molecule further yielded a Ki on hCA XII of 45 nM.

In turn, `NS(=O)(=O)c1ccc(C(=O)N2CCC(C(=O)NNC(=S)Nc3ccccc3Cl)CC2)cc1` [Compound 6d, N-(2-Chlorophenyl)-2-(1-(4-sulfamoylbenzoyl)piperidine-4-carbonyl)hydrazinecarbothioamide] registered a melting point of 209 to 210 °C. The affinity at hCA II, expressed as Ki, was 20.6 nM. In addition, at hCA IX, the Ki is 8.2 nM. For the same molecule, the inhibition constant (Ki) at hCA I was found to be 173 nM. The molecule further registered a Ki at hCA XII of 27.1 nM.

Consider `NS(=O)(=O)c1ccc(C(=O)N2CCC(C(=O)NNC(=S)Nc3cccc(Cl)c3)CC2)cc1` [Compound 6e, N-(3-Chlorophenyl)-2-(1-(4-sulfamoylbenzoyl)piperidine-4-carbonyl)hydrazinecarbothioamide], for which the melting point was in the range of 226 to 227 °C. In addition, on hCA II, the affinity, expressed as Ki, was 16.6 nM. The molecule also had an inhibitory constant (Ki) on hCA IX of 18 nM. The inhibition constant (Ki) at hCA I was 323 nM. The inhibition constant (Ki) on hCA XII was determined as 9.7 nM.

Take `NS(=O)(=O)c1ccc(C(=O)N2CCC(C(=O)NNC(=S)Nc3ccc(Cl)cc3)CC2)cc1` [Compound 6f, N-(4-Chlorophenyl)-2-(1-(4-sulfamoylbenzoyl)piperidine-4-carbonyl)hydrazinecarbothioamide]: the melting point lay in the range of 222 to 223 °C. The molecule also displayed a Ki at hCA II of 41.6 nM. The affinity at hCA IX corresponds to a Ki of 26.1 nM. The same molecule gave a Ki on hCA I of 131 nM. In addition, on hCA XII, the Ki came out at 17.7 nM.

`NS(=O)(=O)c1ccc(C(=O)N2CCC(C(=O)NNC(=S)Nc3ccc(Cl)c(Cl)c3)CC2)cc1` [Compound 6g, N-(3,4-Dichlorophenyl)-2-(1-(4-sulfamoylbenzoyl)piperidine-4-carbonyl)hydrazinecarbothioamide] registered a melting point of 232 to 233 °C. The affinity on hCA II, expressed as Ki, was 22.4 nM. This molecule had a Ki at hCA IX of 4.7 nM. At hCA I, this molecule registered an inhibition constant Ki of 442 nM. The inhibition constant (Ki) on hCA XII amounted to 26.9 nM.

`NS(=O)(=O)c1ccc(C(=O)N2CCC(C(=O)NNC(=S)Nc3ccc(Cl)cc3Cl)CC2)cc1` [Compound 6h, N-(2,4-Dichlorophenyl)-2-(1-(4-sulfamoylbenzoyl)piperidine-4-carbonyl)hydrazinecarbothioamide] displayed a melting point of 220 to 221 °C. Moreover, affinity at hCA II was put at a Ki of 53.4 nM. This molecule also showed a Ki on hCA IX of 18 nM. The molecule further showed a Ki at hCA I of 229 nM. On hCA XII, this molecule gave a Ki of 2.6 nM. Also, the “increase in hCA XII activity as compared to the 3,4-dichloro analog” value at hCA XII (versus 6g) is around 10 fold.

As to `NS(=O)(=O)c1ccc(C(=O)N2CCC(C(=O)NNC(=S)Nc3c(Cl)cccc3Cl)CC2)cc1` [Compound 6i, N-(2,6-Dichlorophenyl)-2-(1-(4-sulfamoylbenzoyl)piperidine-4-carbonyl)hydrazinecarbothioamide], the melting point is 179 to 180 °C. The molecule further showed a Ki on hCA II of 21.5 nM. For the same molecule, the Ki on hCA IX came to 24.2 nM. Also, affinity on hCA I was put at a Ki of 1340 nM. Affinity on hCA XII was put at a Ki of 10 nM.

Regarding `COc1ccccc1NC(=S)NNC(=O)C1CCN(C(=O)c2ccc(S(N)(=O)=O)cc2)CC1` [Compound 6j, N-(2-methoxyphenyl)-2-(1-(4-sulfamoylbenzoyl)piperidine-4-carbonyl)hydrazine-1-carbothioamide], the melting point fell in the range of 214 to 215 °C. The inhibition constant Ki at hCA II was found to be 13.1 nM. The inhibition constant Ki on hCA IX was 4.2 nM. The “hCA IX, hCA XII/hCA I selectivity” value on hCA IX (hCA IX and hCA XII versus hCA I) is “about 35 fold”. For the same molecule, affinity at hCA I was put at a Ki of 160 nM. At hCA XII, this molecule came in with a Ki of 4.6 nM.

Consider `COc1cccc(NC(=S)NNC(=O)C2CCN(C(=O)c3ccc(S(N)(=O)=O)cc3)CC2)c1` [Compound 6k, N-(3-methoxyphenyl)-2-(1-(4-sulfamoylbenzoyl)piperidine-4-carbonyl)hydrazine-1-carbothioamide], for which the melting point was 214 to 215 °C. Moreover, the inhibitory constant (Ki) on hCA II was 11.2 nM. In addition, on hCA IX, the affinity, expressed as Ki, was 25.1 nM. This molecule also showed a Ki on hCA I of 146 nM. At hCA XII, this molecule displayed an inhibition constant (Ki) of 29.9 nM.

`COc1ccc(NC(=S)NNC(=O)C2CCN(C(=O)c3ccc(S(N)(=O)=O)cc3)CC2)cc1` [Compound 6l, N-(4-Methoxyphenyl)-2-(1-(4-sulfamoylbenzoyl)piperidine-4-carbonyl)hydrazinecarbothioamide] showed a melting point above 250 °C. The same molecule returned an inhibition constant Ki at hCA II of 15.1 nM. At hCA IX, this molecule returned an inhibition constant Ki of 22.1 nM. The molecule further gave a Ki at hCA I of 211 nM. Also, affinity at hCA XII was put at a Ki of 27.8 nM.

Consider `COc1cc(NC(=S)NNC(=O)C2CCN(C(=O)c3ccc(S(N)(=O)=O)cc3)CC2)cc(OC)c1OC` [Compound 6m, 2-(1-(4-Sulfamoylbenzoyl)piperidine-4-carbonyl)-N-(3,4,5-trimethoxyphenyl)hydrazinecarbothioamide], for which the melting point was above 250 °C. For the same molecule, the Ki at hCA II worked out at 36.8 nM. In addition, affinity at hCA IX was put at a Ki of 16.6 nM. The Ki at hCA I turned out to be 428 nM. The molecule also showed a Ki on hCA XII of 27.3 nM.

In turn, `NS(=O)(=O)c1ccc(C(=O)N2CCC(C(=O)NNC(=S)Nc3ccccc3F)CC2)cc1` [Compound 6n, N-(2-Fluorophenyl)-2-(1-(4-sulfamoylbenzoyl)piperidine-4-carbonyl)hydrazinecarbothioamide] came in with a melting point of 219 to 220 °C. Moreover, the Ki on hCA II is 15.2 nM. In addition, the affinity at hCA IX, expressed as Ki, was 6.9 nM. In addition, the Ki at hCA I came out at 431 nM. Further, at hCA XII, affinity was put at a Ki of 4.9 nM.

Consider `NS(=O)(=O)c1ccc(C(=O)N2CCC(C(=O)NNC(=S)Nc3ccc(F)cc3)CC2)cc1` [Compound 6p, N-(4-Fluorophenyl)-2-(1-(4-sulfamoylbenzoyl)piperidine-4-carbonyl)hydrazinecarbothioamide], for which the melting point fell in the range of 215 to 216 °C. In addition, the affinity at hCA II corresponds to a Ki of 23 nM. On hCA IX, this molecule returned an inhibition constant Ki of 20.1 nM. The molecule also returned a Ki on hCA I of 79.6 nM. Also, the Ki on hCA XII came out at 15.9 nM.

For the molecule `NS(=O)(=O)c1ccc(C(=O)N2CCC(C(=O)NNC(=S)Nc3c(F)cccc3F)CC2)cc1` [Compound 6q, N-(2,6-Difluorophenyl)-2-(1-(4-sulfamoylbenzoyl)piperidine-4-carbonyl)hydrazinecarbothioamide], the melting point fell in the range of 242 to 243 °C. Also, affinity at hCA II was put at a Ki of 28.2 nM. Further, the inhibition constant (Ki) on hCA IX turned out to be 5.9 nM. The Ki at hCA I came to 65.4 nM. The inhibitory constant (Ki) at hCA XII was 5.6 nM.

Molecule `Cc1ccccc1NC(=S)NNC(=O)C1CCN(C(=O)c2ccc(S(N)(=O)=O)cc2)CC1` [Compound 6r, 2-(1-(4-sulfamoylbenzoyl)piperidine-4-carbonyl)-N-(o-tolyl)hydrazine-1-carbothioamide] showed a melting point of 209 to 210 °C. Moreover, affinity on hCA II was put at a Ki of 38.5 nM. Affinity at hCA IX was put at a Ki of 9 nM. On hCA I, this molecule showed a Ki of 277 nM. In addition, the Ki on hCA XII came out at 18.4 nM.

For the molecule `Cc1cccc(C)c1NC(=S)NNC(=O)C1CCN(C(=O)c2ccc(S(N)(=O)=O)cc2)CC1` [Compound 6u, N-(2,6-Dimethylphenyl)-2-(1-(4-sulfamoylbenzoyl)piperidine-4-carbonyl)hydrazinecarbothioamide], the melting point lay in the range of 233 to 234 °C. The same molecule yielded a Ki on hCA II of 89.6 nM. The same molecule registered a Ki on hCA IX of 4.7 nM. At hCA I, this molecule gave an inhibition constant (Ki) of 308 nM. On hCA XII, this molecule had a Ki of 9.5 nM.

For the molecule `NS(=O)(=O)c1ccc(C(=O)N2CCC(C(=O)NNC(=S)NCc3ccccc3)CC2)cc1` [Compound 6v, N-Benzyl-2-(1-(4-sulfamoylbenzoyl)piperidine-4-carbonyl)hydrazinecarbothioamide], the melting point was above 250 °C. Also, at hCA II, the inhibition constant Ki turned out to be 71.4 nM. Further, affinity at hCA IX was put at a Ki of 24.2 nM. On hCA I, this molecule gave a Ki of 198 nM. In addition, affinity on hCA XII was put at a Ki of 25 nM.

Consider `COc1ccc(CNC(=S)NNC(=O)C2CCN(C(=O)c3ccc(S(N)(=O)=O)cc3)CC2)cc1` [Compound 6w, N-(4-Methoxybenzyl)-2-(1-(4-sulfamoylbenzoyl)piperidine-4-carbonyl)hydrazinecarbothioamide], for which the melting point is 240 to 241 °C. Affinity on hCA II was put at a Ki of 29.3 nM. Besides, the affinity on hCA IX, expressed as Ki, was 31.7 nM. The molecule further gave an inhibition constant (Ki) at hCA I of 178 nM. This molecule also showed an inhibitory constant (Ki) at hCA XII of 29.9 nM.

In turn, `NS(=O)(=O)c1ccc(C(=O)N2CCC(C(=O)NNC(=S)NC3CCCCC3)CC2)cc1` [Compound 6y, N-Cyclohexyl-2-(1-(4-sulfamoylbenzoyl)piperidine-4-carbonyl)hydrazinecarbothioamide] returned a melting point of 183 to 184 °C. The molecule further returned a Ki on hCA II of 5.7 nM. This molecule also yielded an inhibitory constant (Ki) on hCA IX of 1.7 nM. Moreover, the affinity on hCA I corresponds to a Ki of 118 nM. At hCA XII, this molecule showed a Ki of 19.6 nM.
